{"source": "patent US4476120A", "about": "“Thiolic derivatives of erythromycin having therapeutic activity, and pharmaceutical compositions containing them” (Sigma Tau Indistrie Farmaceutiche Riunites, p.A, priority 1982, dated 1984)", "key": {"Staph. albus SS 03": {"system": "Staph. albus SS 03", "format": "cell-based", "details": "Brain Heart Infusion, estolate and RV11-RV15 previously hydrolized, unit assumed"}, "Staph. albus SS 04": {"system": "Staph. albus SS 04", "format": "cell-based", "details": "Brain Heart Infusion, estolate and RV11-RV15 previously hydrolized, unit assumed"}, "Staph. aureus SS 07 [1]": {"system": "Staph. aureus SS 07", "format": "cell-based", "details": "Brain Heart Infusion, estolate and RV11-RV15 previously hydrolized, unit assumed"}, "Staph. aureus SS 08": {"system": "Staph. aureus SS 08", "format": "cell-based", "details": "Brain Heart Infusion, estolate and RV11-RV15 previously hydrolized, unit assumed"}, "Staph. aureus SS 09": {"system": "Staph. aureus SS 09", "format": "cell-based", "details": "Brain Heart Infusion, estolate and RV11-RV15 previously hydrolized, unit assumed"}, "Staph. aureus SS 10": {"system": "Staph. aureus SS 10", "format": "cell-based", "details": "Brain Heart Infusion, estolate and RV11-RV15 previously hydrolized, unit assumed"}, "[2]": {"system": "Strept. haemolyticus SS 17", "format": "cell-based", "details": "Brain Heart Infusion, estolate and RV11-RV15 previously hydrolized, unit assumed"}, "[3]": {"system": "Strept. haemolyticus SS 18", "format": "cell-based", "details": "Brain Heart Infusion, estolate and RV11-RV15 previously hydrolized, unit assumed"}, "Strept. faecalis SS 19": {"system": "Strept. faecalis SS 19", "format": "cell-based", "details": "Brain Heart Infusion, estolate and RV11-RV15 previously hydrolized, unit assumed"}, "S. lutea ATCC 9341": {"system": "S. lutea ATCC 9341", "format": "cell-based", "details": "Brain Heart Infusion, estolate and RV11-RV15 previously hydrolized, unit assumed"}, "B. subtilis ATCC 6633": {"system": "B. subtilis ATCC 6633", "format": "cell-based", "details": "Brain Heart Infusion, estolate and RV11-RV15 previously hydrolized, unit assumed"}, "B. subtilis SS 127": {"system": "B. subtilis SS 127", "format": "cell-based", "details": "Brain Heart Infusion, estolate and RV11-RV15 previously hydrolized, unit assumed"}, "B. anthranis SS 08": {"system": "B. anthranis SS 08", "format": "cell-based", "details": "Brain Heart Infusion, estolate and RV11-RV15 previously hydrolized, unit assumed"}, "Br. melitensis SS 19": {"system": "Br. melitensis SS 19", "format": "cell-based", "details": "unit assumed"}, "Br. abortus SS 7": {"system": "Br. abortus SS 7", "format": "cell-based", "details": "Brain Heart Infusion, estolate and RV11-RV15 previously hydrolized, unit assumed"}, "Citrobacter SS 05": {"system": "Citrobacter SS 05", "format": "cell-based", "details": "Brain Heart Infusion, estolate and RV11-RV15 previously hydrolized, unit assumed"}, "Citrobacter SS 09": {"system": "Citrobacter SS 09", "format": "cell-based", "details": "Brain Heart Infusion, estolate and RV11-RV15 previously hydrolized, unit assumed"}, "S. infantis SS 08": {"system": "S. infantis SS 08", "format": "cell-based", "details": "Brain Heart Infusion, estolate and RV11-RV15 previously hydrolized, unit assumed"}, "E. cloacae SS 07": {"system": "E. cloacae SS 07", "format": "cell-based", "details": "Brain Heart Infusion, estolate and RV11-RV15 previously hydrolized, unit assumed"}, "E. aerogenes SS 011": {"system": "E. aerogenes SS 011", "format": "cell-based", "details": "Brain Heart Infusion, estolate and RV11-RV15 previously hydrolized, unit assumed"}, "Ps. aeruginosa SS 10": {"system": "Ps. aeruginosa SS 10", "format": "cell-based", "details": "Brain Heart Infusion, estolate and RV11-RV15 previously hydrolized, unit assumed"}, "E. coli SS 04": {"system": "E. coli SS 04", "format": "cell-based", "details": "Brain Heart Infusion, estolate and RV11-RV15 previously hydrolized, unit assumed"}, "E. coli SS 05": {"system": "E. coli SS 05", "format": "cell-based", "details": "Brain Heart Infusion, estolate and RV11-RV15 previously hydrolized, unit assumed"}, "E. coli SS 07": {"system": "E. coli SS 07", "format": "cell-based", "details": "Brain Heart Infusion, estolate and RV11-RV15 previously hydrolized, unit assumed"}, "Pr. mirabilis SS 09": {"system": "Pr. mirabilis SS 09", "format": "cell-based", "details": "Brain Heart Infusion, estolate and RV11-RV15 previously hydrolized, unit assumed"}, "Pr. vulgaris SS 10": {"system": "Pr. vulgaris SS 10", "format": "cell-based", "details": "Brain Heart Infusion, estolate and RV11-RV15 previously hydrolized, unit assumed"}, "Kl. aerogenes SS 71": {"system": "Kl. aerogenes SS 71", "format": "cell-based", "details": "Brain Heart Infusion, estolate and RV11-RV15 previously hydrolized, unit assumed"}, "H. tubercolosis SS 03": {"system": "H. tubercolosis SS 03", "format": "cell-based", "details": "Brain Heart Infusion, estolate and RV11-RV15 previously hydrolized, unit assumed", "excerpt": "(§1) In the following table I the MIC/ml values are indicated corresponding to the lowest concentration capable of inducing a complete inhibition of the bacterial development."}, "Kl. pneumoniae SS 04": {"system": "Kl. pneumoniae SS 04", "format": "cell-based", "details": "Brain Heart Infusion, estolate and RV11-RV15 previously hydrolized, unit assumed", "excerpt": "as §1"}, "Sr. marcescens SS 03": {"system": "Sr. marcescens SS 03", "format": "cell-based", "details": "Brain Heart Infusion, estolate and RV11-RV15 previously hydrolized, unit assumed"}, "C. diphtheriae SS 19": {"system": "C. diphtheriae SS 19", "format": "cell-based", "details": "Brain Heart Infusion, estolate and RV11-RV15 previously hydrolized, unit assumed"}, "N. gonorreae SS 27": {"system": "N. gonorreae SS 27", "format": "cell-based", "details": "Brain Heart Infusion, estolate and RV11-RV15 previously hydrolized, unit assumed"}, "H. influentiae SS 02": {"system": "H. influentiae SS 02", "format": "cell-based", "details": "Brain Heart Infusion, estolate and RV11-RV15 previously hydrolized, unit assumed"}, "H. pertussis SS 03": {"system": "H. pertussis SS 03", "format": "cell-based", "details": "Brain Heart Infusion, estolate and RV11-RV15 previously hydrolized, unit assumed"}, "C. albicans SS 04": {"system": "C. albicans SS 04", "format": "cell-based", "details": "Brain Heart Infusion, estolate and RV11-RV15 previously hydrolized, unit assumed"}, "Cl. tetani SS 17": {"system": "Cl. tetani SS 17", "format": "cell-based", "details": "Brain Heart Infusion, estolate and RV11-RV15 previously hydrolized, unit assumed"}, "B. anthranis SS 09": {"system": "B. anthranis SS 09", "format": "cell-based", "details": "B. anthranis SS 09 (14 bis); Brain Heart Infusion; estolate and RV11-RV15 previously hydrolized; unit assumed"}, "Acute toxicity": {"assay": "Acute toxicity", "format": "in vivo", "details": "mouse, in vivo, po, 14400 min", "protocol": "The acute toxicity was assessed in Swiss white mice by oral and intravenous route. The LD50 values have been calculated by the methods of Probits, starting from the mortality recorded 10 days after the treatment."}, "Staph. aureus SS 07 [4]": {"system": "Staph. aureus SS 07", "assay": "Experimental infection induced by Staph. aureus SS 07", "format": "in vivo, Swiss white mice", "details": "os; Staph. aureus SS 07; mg/kg of erythromycin; survival after 7 days; 10080 min", "protocol": "(§2) Swiss white mice of 20 g body weight were used, infected by parenteral administration of lethal amounts of pathogenic […] of Staph. aureus SS 07 and D. pneumoniae SS 23.\n(§3) The antibiotics were administered at the time of injecting the infecting germ and 6 and 24 hours later. On the basis of the survival after 7 days, the ED50 values were determined, as reported in the following table II and III, wherein the reliability limits are indicated in brackets."}, "D. pneumoniae SS 23": {"system": "D. pneumoniae SS 23", "assay": "Experimental infection induced by D. pneumoniae SS 23", "format": "in vivo, Swiss white mice", "details": "os; D. pneumoniae SS 23; mg/kg of erythromycin; survival after 7 days; 10080 min", "protocol": "as §2, §3"}, "[5]": {"assay": "Mucolytic activity: obstruction of the bronchial tract after SO2 inhalation", "format": "in vivo, Sprague Dawley male rats", "details": "oral, 500 mg/kg; SO2, 15 days"}, "[6]": {"assay": "Histological examination of bronchi after SO2 inhalation", "format": "in vivo, Sprague Dawley male rats", "details": "oral, 500 mg/kg"}}, "data": [{"smiles": "CCC(=O)O[C@H]1[C@H](O[C@@H]2[C@@H](C)[C@H](O[C@H]3C[C@@](C)(OC)[C@@H](O)[C@H](C)O3)[C@@H](C)C(=O)O[C@H](CC)[C@@](C)(O)[C@H](O)[C@@H](C)C(=O)[C@H](C)C[C@@]2(C)O)O[C@H](C)C[C@@H]1N(C)C", "note": "[RV13, erythromycin-monopropionate-thiazolidin-carboxylate]", "values": [{"measurement": "MIC", "setting": "Staph. albus SS 03", "result": 0.05, "unit": "µg/mL"}, {"measurement": "MIC", "setting": "Staph. albus SS 04", "result": 0.025, "unit": "µg/mL"}, {"measurement": "MIC", "setting": "Staph. aureus SS 07 [1]", "result": 0.025, "unit": "µg/mL"}, {"measurement": "MIC", "setting": "Staph. aureus SS 08", "result": 0.05, "unit": "µg/mL"}, {"measurement": "MIC", "setting": "Staph. aureus SS 09", "result": 0.1, "unit": "µg/mL"}, {"measurement": "MIC", "setting": "Staph. aureus SS 10", "result": 0.1, "unit": "µg/mL"}, {"measurement": "MIC", "setting": "[2]", "result": 1.5, "unit": "µg/mL"}, {"measurement": "MIC", "setting": "[3]", "result": 1.5, "unit": "µg/mL"}, {"measurement": "MIC", "setting": "Strept. faecalis SS 19", "result": 0.05, "unit": "µg/mL"}, {"measurement": "MIC", "setting": "S. lutea ATCC 9341", "result": 0.025, "unit": "µg/mL"}, {"measurement": "MIC", "setting": "B. subtilis ATCC 6633", "result": 0.025, "unit": "µg/mL"}, {"measurement": "MIC", "setting": "B. subtilis SS 127", "result": 0.025, "unit": "µg/mL"}, {"measurement": "MIC", "setting": "B. anthranis SS 08", "result": 0.4, "unit": "µg/mL"}, {"measurement": "MIC", "setting": "Br. melitensis SS 19", "result": 3, "unit": "µg/mL"}, {"measurement": "MIC", "setting": "Br. abortus SS 7", "result": 6, "unit": "µg/mL"}, {"measurement": "MIC", "setting": "Citrobacter SS 05", "result": "> 200", "unit": "µg/mL"}, {"measurement": "MIC", "setting": "Citrobacter SS 09", "result": "> 200", "unit": "µg/mL"}, {"measurement": "MIC", "setting": "S. infantis SS 08", "result": 100, "unit": "µg/mL"}, {"measurement": "MIC", "setting": "E. cloacae SS 07", "result": "> 200", "unit": "µg/mL"}, {"measurement": "MIC", "setting": "E. aerogenes SS 011", "result": 50, "unit": "µg/mL"}, {"measurement": "MIC", "setting": "Ps. aeruginosa SS 10", "result": 100, "unit": "µg/mL"}, {"measurement": "MIC", "setting": "E. coli SS 04", "result": 100, "unit": "µg/mL"}, {"measurement": "MIC", "setting": "E. coli SS 05", "result": 50, "unit": "µg/mL"}, {"measurement": "MIC", "setting": "E. coli SS 07", "result": 50, "unit": "µg/mL"}, {"measurement": "MIC", "setting": "Pr. mirabilis SS 09", "result": "> 200", "unit": "µg/mL"}, {"measurement": "MIC", "setting": "Pr. vulgaris SS 10", "result": "> 200", "unit": "µg/mL"}, {"measurement": "MIC", "setting": "Kl. aerogenes SS 71", "result": 100, "unit": "µg/mL"}, {"measurement": "MIC", "setting": "H. tubercolosis SS 03", "result": 50, "unit": "µg/mL"}, {"measurement": "MIC", "setting": "Kl. pneumoniae SS 04", "result": 100, "unit": "µg/mL"}, {"measurement": "MIC", "setting": "Sr. marcescens SS 03", "result": 100, "unit": "µg/mL"}, {"measurement": "MIC", "setting": "C. diphtheriae SS 19", "result": 0.01, "unit": "µg/mL"}, {"measurement": "MIC", "setting": "N. gonorreae SS 27", "result": 0.8, "unit": "µg/mL"}, {"measurement": "MIC", "setting": "H. influentiae SS 02", "result": 1.5, "unit": "µg/mL"}, {"measurement": "MIC", "setting": "H. pertussis SS 03", "result": 0.2, "unit": "µg/mL"}, {"measurement": "MIC", "setting": "C. albicans SS 04", "result": 100, "unit": "µg/mL"}, {"measurement": "MIC", "setting": "Cl. tetani SS 17", "result": 0.2, "unit": "µg/mL"}, {"measurement": "MIC", "setting": "B. anthranis SS 09", "result": 0.4, "unit": "µg/mL"}, {"measurement": "LD50 (reliability limits)", "setting": "Acute toxicity", "result": 3000, "unit": "mg·kg"}, {"measurement": "ED50 (reliability limits)", "setting": "Staph. aureus SS 07 [4]", "result": "2.20 (2.44-1.99) mg/kg"}, {"measurement": "ED50 (reliability limits)", "setting": "D. pneumoniae SS 23", "result": "113.88 (144.73-89.60) mg/kg"}, {"measurement": "Partial obstruction (% incidence)", "setting": "[5]", "result": 20, "unit": "%"}, {"measurement": "Total obstruction, compact plug (% incidence)", "setting": "[5]", "result": 20, "unit": "%"}, {"measurement": "Total obstruction, nodular mass (% incidence)", "setting": "[5]", "result": 6.66, "unit": "%"}, {"measurement": "Total obstruction, pimply mass (% incidence)", "setting": "[5]", "result": 13.33, "unit": "%"}, {"measurement": "histological appearance of non obstructed bronchi", "setting": "[6]; free non obstructed", "result": "presence of bronchi having almost normal appearance"}, {"measurement": "histological appearance of obstructed bronchial tract", "setting": "[6]; obstructed", "result": "fully like that of the control animals"}]}]}
